Experimental data as given in patent publication US10711029B2, “Beta-d-2′-deoxy-2′-alpha-fluoro-2′-beta-c-substituted-4′fluoro-n6-substituted-6-amino-2-substituted purine nucleotides for the treatment of hepatitis c virus infection” (Atea Pharmaceuticals, Inc., priority 2016, dated 2020).

Assays:
[1] = system: HCV genotype 1b luciferase reporter replicon; assay: HCV replicon assay, antiviral efficacy by luciferase reporter activity; assay type: cell-based
Protocol: (§1) Huh-7 luc/neo ET cells bearing a discistronic HCV genotype 1b luciferase reporter replicon were plated at 7.5×10^3 cells/mi in duplicate 96-well plates for the parallel determination of antiviral efficacy (EC50) and cytotoxicity (TC50). The plates were cultured for 24 hours prior to the addition of compounds. Six serial one half log dilutions of the test articles (high test concentration of 100.0 μM. or high test concentration of 1.0 μM) and human interferon-alpha2b (high test 10.0 U/ml) were prepared in cell culture medium and added to the cultured cells in triplicate wells for each dilution. Six wells in the test plates received medium alone as an untreated control. Following 72 hours of culture in the presence of compound, one of the plates was used for the determination of cytotoxicity by staining with STT and the other for antiviral efficacy by determination of luciferase reporter activity. Cytotoxicity and efficacy data were collected and imported into a customized Excel workbook for determination of the TC50 and EC50 values.

[2] = Cytotoxicity in the replicon cells (staining with STT); assay type: cell-based; conditions: human, Huh-7 luc/neo ET cells, read-out: HCV Replicon CC50
Protocol: as §1

[3] = target: HCV RNA-dependent RNA polymerase (Hepatitis C virus genotype 1a, UniProt P27958); conditions: Ivanov et al., Russian J. Bioorg. Chem. 2010; cited from earlier work
Chain of HCV RNA-dependent RNA polymerase (P27958 2421-3011): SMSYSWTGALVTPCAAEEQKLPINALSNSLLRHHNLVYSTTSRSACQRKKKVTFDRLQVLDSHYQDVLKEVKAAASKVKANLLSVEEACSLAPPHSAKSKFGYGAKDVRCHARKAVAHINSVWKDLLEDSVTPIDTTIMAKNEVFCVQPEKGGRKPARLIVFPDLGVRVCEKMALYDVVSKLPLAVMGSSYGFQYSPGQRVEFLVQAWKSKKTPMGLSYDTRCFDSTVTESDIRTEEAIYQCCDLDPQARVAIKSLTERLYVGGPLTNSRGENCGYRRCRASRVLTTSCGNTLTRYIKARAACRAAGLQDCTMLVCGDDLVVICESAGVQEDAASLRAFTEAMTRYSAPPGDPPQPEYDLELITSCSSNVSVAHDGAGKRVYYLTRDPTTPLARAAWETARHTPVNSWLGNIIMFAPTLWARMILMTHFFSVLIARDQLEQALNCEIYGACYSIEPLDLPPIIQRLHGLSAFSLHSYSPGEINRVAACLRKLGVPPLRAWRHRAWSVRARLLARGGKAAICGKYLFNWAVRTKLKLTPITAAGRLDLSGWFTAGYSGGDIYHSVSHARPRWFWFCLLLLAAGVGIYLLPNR

adenosine deaminase = target: T1, adenosine deaminase (Homo sapiens, UniProt P00813); conditions: over a long period (120 minutes); WO 2010/091386; cited from earlier work
T1 sequence (P00813 1-363): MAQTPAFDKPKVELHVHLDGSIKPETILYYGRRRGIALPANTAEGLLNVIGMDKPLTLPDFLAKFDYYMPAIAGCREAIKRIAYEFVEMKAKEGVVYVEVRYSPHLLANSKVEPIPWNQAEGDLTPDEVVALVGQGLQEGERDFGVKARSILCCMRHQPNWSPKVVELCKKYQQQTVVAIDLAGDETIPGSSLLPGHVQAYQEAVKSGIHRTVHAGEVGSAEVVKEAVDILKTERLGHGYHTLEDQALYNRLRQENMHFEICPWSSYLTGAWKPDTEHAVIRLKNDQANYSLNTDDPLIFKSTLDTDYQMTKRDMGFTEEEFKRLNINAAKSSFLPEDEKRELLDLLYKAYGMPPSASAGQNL

Huh-7 luc/neo ET cells = assay: Cytotoxicity in the replicon cells (staining with STT); assay type: cell-based; conditions: 72 hours, read-out: HCV Replicon CC50
Protocol: as §1

| SMILES | Fold increase in activity compared to parent nucleoside [1] | CC50 at 72 h [2] | further results |
| --- | --- | --- | --- |
| CC(C)OC(=O)[C@H](C)NP(=O)(OC[C@@]1(F)O[C@@H](n2cnc3c(N4CCCC4)nc(N)nc32)[C@](C)(F)C1O)Oc1ccccc1 (stereo partly drawn) [Cmpd 12] | >31.3 | > 10 µM |  |
| CC(C)OC(=O)[C@H](C)NP(=O)(OC[C@@]1(F)O[C@@H](n2cnc3c(N(C)C)nc(N)nc32)[C@](C)(F)C1O)Oc1ccccc1 (stereo partly drawn) [Cmpd 2] | 2,941 | > 10 µM |  |
| O=c1ccn([C@@H]2O[C@](F)(COP(=O)(O)OP(=O)(O)OP(=O)(O)O)[C@@H](O)[C@H]2O)c(=O)[nH]1 [4′fluorouridine 5′-O-triphosphate] |  |  | inhibition of HCV RNA-dependent RNA polymerase [3]: effective inhibitor |
| C[C@@]1(F)C(O)[C@@](F)(CO)O[C@H]1n1cnc2c(N3CCCC3)nc(N)nc21 (stereo partly drawn) [Cmpd 11] |  | > 100 µM |  |
| CCN(C)c1nc(N)nc2c1ncn2[C@@H]1O[C@](F)(CO)C(O)[C@@]1(C)F (stereo partly drawn) [Cmpd 13] |  | > 100 µM |  |
| CC(C)OC(=O)[C@H](C)N[P@](=O)(OC[C@@]1(F)O[C@@H](n2cnc3c(N(C)C)nc(F)nc32)[C@](C)(F)[C@@H]1O)Oc1ccccc1 [Cmpd 8] | 2521 | 35.3 µM |  |
| CN(C)c1nc(N)nc2[nH]cnc12 [N^6-dimethyl-2,6-diaminopurine] |  |  | deamination by adenosine deaminase (adenosine deaminase): not substantially deaminated |
| CC(C)OC(=O)[C@H](C)NP(=O)(OC[C@@]1(F)O[C@@H](n2cnc3c(N(C)C4CC4)nc(N)nc32)[C@](C)(F)C1O)Oc1ccccc1 (stereo partly drawn) [Cmpd 15] | 3332 |  | CC50 (Huh-7 luc/neo ET cells): > 50 µM |
| CCN(C)c1nc(N)nc2c1ncn2[C@@H]1O[C@](F)(COP(=O)(N[C@@H](C)C(=O)OC(C)C)Oc2ccccc2)C(O)[C@@]1(C)F (stereo partly drawn) [Cmpd 14] | 434 | > 10 µM |  |
| CC(C)OC(=O)[C@H](C)N[P@](=O)(OC[C@@]1(F)O[C@@H](n2cnc3c(N(C)C)nc(N)nc32)[C@](C)(F)C1O)Oc1ccccc1 (stereo partly drawn) [Cmpd 16] | 40 | > 50 µM |  |
| CNc1nc(N)nc2c1ncn2[C@@H]1O[C@](F)(CO)C(O)[C@@]1(C)F (stereo partly drawn) [Cmpd 5] |  | > 100 µM |  |
| CN(c1nc(N)nc2c1ncn2[C@@H]1O[C@](F)(CO)C(O)[C@@]1(C)F)C1CC1 (stereo partly drawn) [Cmpd 3] |  | > 100 µM |  |
| CNc1nc(N)nc2c1ncn2[C@@H]1O[C@](F)(COP(=O)(N[C@@H](C)C(=O)OC(C)C)Oc2ccccc2)C(O)[C@@]1(C)F (stereo partly drawn) [Cmpd 6] | 10,000 | > 10 µM |  |
| CNc1nc(F)nc2c1ncn2[C@@H]1O[C@](F)(CO[P@@](=O)(N[C@@H](C)C(=O)OC(C)C)Oc2ccccc2)[C@@H](O)[C@@]1(C)F [Cmpd 10] | 4.7 | 54 µM |  |
| CNc1nc(F)nc2c1ncn2[C@@H]1O[C@](F)(CO[P@@](=O)(N[C@@H](C)C(=O)OC(C)C)Oc2ccccc2)C(O)[C@@]1(C)F (stereo partly drawn) [Cmpd 17] | 4.3 | > 50 µM |  |
| CN(C)c1nc(N)nc2c1ncn2[C@@H]1O[C@](F)(CO)C(O)[C@@]1(C)F (stereo partly drawn) [Cmpd 1] |  | > 100 µM |  |
| CC(C)OC(=O)[C@H](C)NP(=O)(OC[C@@]1(F)O[C@@H](n2cnc3c(N(C)C4CC4)nc(N)nc32)[C@](C)(F)C1O)Oc1ccccc1 (stereo partly drawn) [Cmpd 4] | 667 |  | CC50 (Huh-7 luc/neo ET cells): > 10 µM |
